From patent US4044043A, “Derivatives of 9-oxo-13-trans-prostenoic acid esters” (American Cyanamid Company, priority 1975, dated 1977)
Like-named read-outs stand apart in the source and are kept apart here.

System: gastric acid secretion
Experiment: Inhibition of basal Gastric Acid Secretion (Acute Gastric Fistula Rat)
Type: in vivo, Female Sprague-Dawley rats
Settings: 10 mg./kg. intraduodenal
Method in brief: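 Fasted (18-24 h) female Sprague-Dawley rats (140-160 g) with acute gastric fistula; compound given intraduodenally in 0.5% methocel/0.4% Tween 80/saline. Gastric juice collected at 60 and 120 min after a discarded 30-min sample, titrated with 0.01N NaOH to pH 7.0; percent inhibition of acid output versus controls, three rats per group.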

[1] = 2 h, B: 120 minute collection, read-out: % Inhibition Total Acid Output
[2] = 2 h, B: 120 minute collection, read-out: % Inhibition Total Acidity

SMILES	inhibition in vivo at 10 mg/kg (1 h, A: 60 minute collection, read-out: % Inhibition Total Acid Output)	inhibition in vivo at 10 mg/kg (1 h, A: 60 minute collection, read-out: % Inhibition Total Acidity)	inhibition in vivo at 10 mg/kg [1]	inhibition in vivo at 10 mg/kg [2]
CCC/C=C/[C@H]1CCC(=O)[C@@H]1CCCCCCC(=O)O (relative stereo) [9-oxo-18,19,20-trinor-13-trans-prostenoic acid]	55%	20%	55%	52%
CC(C)CC/C=C/[C@@H]1CCC(=O)[C@H]1CCCCCCC(=O)O (relative stereo) [17-methyl-9-oxo-19,20-dinor-13-trans-prostenoic acid]			53%	51%
